This is an account of results in doi:10.1101/2023.12.04.569845, “Identification of 4-(6-((2-methoxyphenyl)amino)pyrazin-2-yl)benzoic acids as CSNK2A inhibitors with antiviral activity and improved selectivity over PIM3” (bioRxiv, 2023).

Structures are written as SMILES. Like-named read-outs stand apart in the source and are kept apart here.

Common to all, as to assay: biochemical
Design in all cases: Thermal shift (DSF, SYPRO Orange) Tm shift of recombinant kinase domains at 10 uM compound

One test concerns the target T1, BIKE (Homo sapiens, UniProt Q9NSY1).
T1 construct: gene BMP2K

In the next test the target is CLK3 (Homo sapiens, UniProt P49761).
For a further test, the target named is T2, Erk2 (Homo sapiens, UniProt P28482).
T2 construct: gene MAPK1

A further test has as its target FLT1 (Homo sapiens, UniProt P17948).
In a further test the target is T3, JNK2 (Homo sapiens, UniProt P45984).
T3 construct: gene MAPK9

A further test has as its target T4, MAP3K5 (Homo sapiens, UniProt Q99683).
T4 sequence (Q99683 1-1374): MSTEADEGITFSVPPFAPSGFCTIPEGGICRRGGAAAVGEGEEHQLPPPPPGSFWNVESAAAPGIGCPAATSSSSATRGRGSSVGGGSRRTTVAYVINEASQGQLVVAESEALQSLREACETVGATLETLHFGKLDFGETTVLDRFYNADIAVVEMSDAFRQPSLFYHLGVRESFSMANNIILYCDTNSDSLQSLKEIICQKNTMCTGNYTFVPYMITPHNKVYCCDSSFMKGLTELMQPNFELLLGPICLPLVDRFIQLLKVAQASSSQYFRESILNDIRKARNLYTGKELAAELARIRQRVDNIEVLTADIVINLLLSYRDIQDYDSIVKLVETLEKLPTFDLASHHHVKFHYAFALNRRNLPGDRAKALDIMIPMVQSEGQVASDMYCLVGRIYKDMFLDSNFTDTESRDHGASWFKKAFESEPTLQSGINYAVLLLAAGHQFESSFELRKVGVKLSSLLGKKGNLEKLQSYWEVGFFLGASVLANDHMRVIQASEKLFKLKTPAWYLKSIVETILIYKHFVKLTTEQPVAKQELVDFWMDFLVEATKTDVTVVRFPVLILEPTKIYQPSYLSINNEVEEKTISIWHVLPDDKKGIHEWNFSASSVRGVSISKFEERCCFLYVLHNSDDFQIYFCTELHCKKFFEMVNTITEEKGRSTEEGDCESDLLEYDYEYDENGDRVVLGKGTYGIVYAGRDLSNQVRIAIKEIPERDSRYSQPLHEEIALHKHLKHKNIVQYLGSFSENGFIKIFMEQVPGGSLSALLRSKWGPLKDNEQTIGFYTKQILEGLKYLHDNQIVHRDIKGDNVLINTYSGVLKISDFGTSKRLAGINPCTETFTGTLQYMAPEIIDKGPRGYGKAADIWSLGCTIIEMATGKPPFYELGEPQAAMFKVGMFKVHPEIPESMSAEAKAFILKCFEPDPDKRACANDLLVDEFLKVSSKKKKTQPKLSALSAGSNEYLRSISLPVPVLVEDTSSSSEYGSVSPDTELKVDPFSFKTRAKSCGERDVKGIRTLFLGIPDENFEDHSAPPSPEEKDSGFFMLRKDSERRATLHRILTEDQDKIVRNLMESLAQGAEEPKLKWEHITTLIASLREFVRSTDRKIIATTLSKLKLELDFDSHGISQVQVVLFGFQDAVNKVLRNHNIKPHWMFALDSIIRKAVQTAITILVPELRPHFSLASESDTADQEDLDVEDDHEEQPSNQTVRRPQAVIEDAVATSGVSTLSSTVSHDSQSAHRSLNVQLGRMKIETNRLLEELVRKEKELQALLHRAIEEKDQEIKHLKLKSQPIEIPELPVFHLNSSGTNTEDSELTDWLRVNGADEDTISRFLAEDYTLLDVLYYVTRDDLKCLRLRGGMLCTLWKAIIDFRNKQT

For a further test, the target named is T5, MARK4 (Homo sapiens, UniProt Q96L34).
T5 sequence (Q96L34 1-752): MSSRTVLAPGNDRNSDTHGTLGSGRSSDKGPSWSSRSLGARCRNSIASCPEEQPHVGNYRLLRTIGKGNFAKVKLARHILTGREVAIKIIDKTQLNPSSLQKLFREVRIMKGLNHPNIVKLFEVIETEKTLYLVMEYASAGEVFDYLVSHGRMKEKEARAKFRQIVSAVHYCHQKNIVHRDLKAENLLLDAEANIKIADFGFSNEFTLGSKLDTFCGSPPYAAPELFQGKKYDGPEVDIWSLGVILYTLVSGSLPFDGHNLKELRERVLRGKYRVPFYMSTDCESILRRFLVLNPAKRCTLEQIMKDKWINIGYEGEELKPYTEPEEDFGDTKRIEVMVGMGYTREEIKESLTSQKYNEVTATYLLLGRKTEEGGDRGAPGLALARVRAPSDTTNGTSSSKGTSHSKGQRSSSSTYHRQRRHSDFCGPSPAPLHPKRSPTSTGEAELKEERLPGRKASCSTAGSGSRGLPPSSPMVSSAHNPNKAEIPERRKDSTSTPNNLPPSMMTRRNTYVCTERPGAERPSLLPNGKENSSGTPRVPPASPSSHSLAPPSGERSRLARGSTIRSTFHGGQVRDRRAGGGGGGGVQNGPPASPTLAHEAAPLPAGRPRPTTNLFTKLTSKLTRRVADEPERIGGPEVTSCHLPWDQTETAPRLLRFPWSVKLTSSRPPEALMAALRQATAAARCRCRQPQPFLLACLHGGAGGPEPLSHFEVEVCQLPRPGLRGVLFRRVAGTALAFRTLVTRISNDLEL

T3 sequence (P45984 whole entry): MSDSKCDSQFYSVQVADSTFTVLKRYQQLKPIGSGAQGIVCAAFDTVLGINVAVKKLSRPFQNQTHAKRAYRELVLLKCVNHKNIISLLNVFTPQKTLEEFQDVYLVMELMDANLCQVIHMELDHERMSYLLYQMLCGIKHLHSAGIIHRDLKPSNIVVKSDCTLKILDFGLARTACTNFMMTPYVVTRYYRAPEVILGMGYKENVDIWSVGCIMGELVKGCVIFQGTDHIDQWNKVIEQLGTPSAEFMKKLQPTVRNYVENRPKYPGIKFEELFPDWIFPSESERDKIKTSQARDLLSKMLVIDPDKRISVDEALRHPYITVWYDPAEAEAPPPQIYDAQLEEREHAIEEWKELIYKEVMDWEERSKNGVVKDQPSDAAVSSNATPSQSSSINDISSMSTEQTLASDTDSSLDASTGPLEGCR
CLK3, sequence (P49761 whole entry): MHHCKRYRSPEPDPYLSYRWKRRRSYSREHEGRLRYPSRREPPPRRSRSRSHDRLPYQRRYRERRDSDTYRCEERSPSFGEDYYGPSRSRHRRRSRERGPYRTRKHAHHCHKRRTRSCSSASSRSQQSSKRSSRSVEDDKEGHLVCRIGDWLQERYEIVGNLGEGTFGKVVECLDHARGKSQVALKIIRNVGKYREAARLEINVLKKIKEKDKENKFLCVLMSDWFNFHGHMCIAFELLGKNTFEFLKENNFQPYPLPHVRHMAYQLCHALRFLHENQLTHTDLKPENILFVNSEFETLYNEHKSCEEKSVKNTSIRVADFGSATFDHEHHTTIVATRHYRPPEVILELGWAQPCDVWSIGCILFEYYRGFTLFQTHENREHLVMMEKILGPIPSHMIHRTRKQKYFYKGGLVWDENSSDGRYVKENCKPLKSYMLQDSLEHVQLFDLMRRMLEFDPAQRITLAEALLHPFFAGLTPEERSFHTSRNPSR
T2 sequence (P28482 whole entry): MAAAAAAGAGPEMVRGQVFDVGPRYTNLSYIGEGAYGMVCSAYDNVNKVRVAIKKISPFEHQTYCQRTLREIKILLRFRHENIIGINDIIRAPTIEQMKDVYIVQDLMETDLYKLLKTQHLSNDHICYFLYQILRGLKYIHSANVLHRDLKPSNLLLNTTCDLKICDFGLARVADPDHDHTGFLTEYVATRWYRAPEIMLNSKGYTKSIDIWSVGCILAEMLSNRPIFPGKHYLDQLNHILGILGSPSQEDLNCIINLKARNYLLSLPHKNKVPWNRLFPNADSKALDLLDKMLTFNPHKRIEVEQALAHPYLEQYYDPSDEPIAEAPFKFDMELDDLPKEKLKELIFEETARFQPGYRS
FLT1, sequence (P17948 whole entry): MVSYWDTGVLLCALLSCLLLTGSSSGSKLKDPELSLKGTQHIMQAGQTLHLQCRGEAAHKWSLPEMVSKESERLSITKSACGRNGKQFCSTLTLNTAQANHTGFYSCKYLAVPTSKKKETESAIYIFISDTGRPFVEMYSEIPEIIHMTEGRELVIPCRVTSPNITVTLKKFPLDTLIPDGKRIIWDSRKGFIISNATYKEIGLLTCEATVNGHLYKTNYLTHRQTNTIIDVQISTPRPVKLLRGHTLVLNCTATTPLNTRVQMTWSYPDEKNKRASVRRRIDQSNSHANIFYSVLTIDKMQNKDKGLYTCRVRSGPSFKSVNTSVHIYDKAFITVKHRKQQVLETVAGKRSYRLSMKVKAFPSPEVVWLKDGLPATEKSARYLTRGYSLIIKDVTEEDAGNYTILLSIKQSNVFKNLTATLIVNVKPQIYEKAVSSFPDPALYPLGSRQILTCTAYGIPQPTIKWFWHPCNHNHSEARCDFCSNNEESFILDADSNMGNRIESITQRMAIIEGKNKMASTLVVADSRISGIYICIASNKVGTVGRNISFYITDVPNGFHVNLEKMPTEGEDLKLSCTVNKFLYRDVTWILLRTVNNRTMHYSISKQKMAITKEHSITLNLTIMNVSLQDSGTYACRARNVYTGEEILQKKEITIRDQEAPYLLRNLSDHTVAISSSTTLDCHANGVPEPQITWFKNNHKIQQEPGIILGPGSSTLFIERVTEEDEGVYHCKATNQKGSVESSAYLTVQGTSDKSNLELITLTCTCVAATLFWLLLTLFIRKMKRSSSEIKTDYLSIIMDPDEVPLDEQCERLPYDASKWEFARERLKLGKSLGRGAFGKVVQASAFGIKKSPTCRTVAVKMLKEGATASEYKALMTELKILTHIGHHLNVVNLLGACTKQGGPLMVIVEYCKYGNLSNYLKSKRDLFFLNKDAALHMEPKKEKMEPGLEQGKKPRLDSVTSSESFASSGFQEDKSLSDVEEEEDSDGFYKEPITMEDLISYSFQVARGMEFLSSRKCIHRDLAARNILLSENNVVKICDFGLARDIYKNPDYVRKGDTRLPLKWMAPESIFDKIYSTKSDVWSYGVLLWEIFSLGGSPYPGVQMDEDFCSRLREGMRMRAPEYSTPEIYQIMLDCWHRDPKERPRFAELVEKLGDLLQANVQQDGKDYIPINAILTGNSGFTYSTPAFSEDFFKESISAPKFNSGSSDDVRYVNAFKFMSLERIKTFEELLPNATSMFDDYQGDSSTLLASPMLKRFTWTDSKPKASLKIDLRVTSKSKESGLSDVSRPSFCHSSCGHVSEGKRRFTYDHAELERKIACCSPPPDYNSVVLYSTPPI
T1 sequence (Q9NSY1 whole entry): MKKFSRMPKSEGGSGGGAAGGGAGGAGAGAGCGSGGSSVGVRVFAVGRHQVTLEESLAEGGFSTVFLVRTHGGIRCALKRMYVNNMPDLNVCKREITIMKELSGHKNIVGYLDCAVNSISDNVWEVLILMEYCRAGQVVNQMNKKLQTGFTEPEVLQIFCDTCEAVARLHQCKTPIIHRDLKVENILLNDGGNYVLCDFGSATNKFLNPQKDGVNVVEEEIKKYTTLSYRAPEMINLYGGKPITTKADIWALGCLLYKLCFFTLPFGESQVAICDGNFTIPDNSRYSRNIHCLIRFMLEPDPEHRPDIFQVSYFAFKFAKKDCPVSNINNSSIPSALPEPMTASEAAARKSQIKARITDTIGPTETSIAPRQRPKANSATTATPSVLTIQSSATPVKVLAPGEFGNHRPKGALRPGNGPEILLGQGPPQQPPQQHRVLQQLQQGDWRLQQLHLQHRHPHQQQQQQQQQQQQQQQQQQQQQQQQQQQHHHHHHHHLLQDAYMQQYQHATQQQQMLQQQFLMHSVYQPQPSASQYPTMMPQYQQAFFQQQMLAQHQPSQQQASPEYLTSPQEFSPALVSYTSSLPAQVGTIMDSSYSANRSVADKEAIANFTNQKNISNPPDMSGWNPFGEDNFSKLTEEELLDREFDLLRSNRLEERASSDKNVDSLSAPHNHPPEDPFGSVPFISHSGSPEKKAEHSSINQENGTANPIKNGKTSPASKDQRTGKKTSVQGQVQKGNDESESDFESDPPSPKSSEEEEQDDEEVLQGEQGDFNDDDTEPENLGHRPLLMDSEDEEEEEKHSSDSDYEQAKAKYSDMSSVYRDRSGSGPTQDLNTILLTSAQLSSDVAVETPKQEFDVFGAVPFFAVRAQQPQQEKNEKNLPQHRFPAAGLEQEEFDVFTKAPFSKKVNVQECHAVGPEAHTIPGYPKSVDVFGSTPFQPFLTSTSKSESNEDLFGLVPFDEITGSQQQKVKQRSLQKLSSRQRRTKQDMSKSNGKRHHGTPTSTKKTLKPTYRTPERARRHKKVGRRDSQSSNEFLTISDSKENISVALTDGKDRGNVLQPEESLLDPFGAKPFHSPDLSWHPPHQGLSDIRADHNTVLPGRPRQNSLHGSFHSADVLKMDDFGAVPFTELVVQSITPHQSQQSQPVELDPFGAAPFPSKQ

Take `CC(C)Oc1ccc2ccn(-c3cncc(-c4ccc(C(=O)O)cc4)n3)c2c1` [6c]: the ΔTm at 10 µM on BIKE (read-out: 6c) stood at 11 °C; at CLK3 (read-out: 6c) it was 8 °C; at Erk2 (read-out: 6c), 0 °C; at FLT1 (read-out: 6c), 7 °C; at JNK2 (read-out: 6c) it was 0 °C; at MAP3K5 (read-out: 6c), 3 °C. Also, the ΔTm at 10 µM at MARK4 (read-out: 6c) amounted to 1 °C.
In the case of `COc1ccc(OC(C)C)cc1Nc1cncc(-c2ccc(C(=O)O)cc2)n1` [7c], the ΔTm at 10 µM was 10 °C on BIKE (read-out: 7c); 7 °C on CLK3 (read-out: 7c); 0 °C on Erk2 (read-out: 7c); 5 °C on FLT1 (read-out: 7c); 0 °C at JNK2 (read-out: 7c); 1 °C at MAP3K5 (read-out: 7c). Also, the ΔTm at 10 µM on MARK4 (read-out: 7c) was determined as 0 °C.
For the compound `CC(C)Nc1ccc2cnn(-c3cncc(-c4ccc(C(=O)O)cc4)n3)c2c1` [compound 2, 2], the ΔTm at 10 µM on BIKE (read-out: 2) stood at 13 °C; at CLK3 (read-out: 2), 8 °C; on Erk2 (read-out: 2) it was 0 °C; at FLT1 (read-out: 2), 7 °C; at JNK2 (read-out: 2), 1 °C; on MAP3K5 (read-out: 2), 5 °C. Besides, the ΔTm at 10 µM at MARK4 (read-out: 2) was 1 °C.
